Where two headings read alike, the source gives them in different places.

Type in all cases: in vivo
Experiment [1] has as its system Laodelphax striatellus. As to the kind of experiment: whole plant or invertebrate. How it is done:
(§1) Insecticidal Test Against Laodelphax striatellus
A chemical solution diluted to have a pre-determined concentration was sprayed to young rice plant (breed: Koshihikari) followed by air drying. Then, it was added to a glass test tube (diameter of 3 cm and height of 10 cm) added with water together with ten 3-stage larvae of Laodelphax striatellus. The tube was then covered. The number of living insects was determined after 6 days and the dead insect ratio was calculated. There were two series, i.e., 10 insects per group. Meanwhile, in Table 29, when combination of two types of test chemicals are used (i.e., A and B), the combination of the two types was described as A+B, and in the concentration column (ppm), it was described as concentration of A+concentration of B.

The next experiment relates to Myzus persicae. As to the kind of experiment: Test Example 12: insecticidal test against Myzus persicae (leaf spray on young white radish plant, single and combined chemicals). Conditions: after 5 days. How it is done: Insecticidal Test Against Myzus persicae
A chemical solution which has been diluted to have a pre-determined concentration was sprayed on a leaf part of young white radish plant having 1-stage larvae Myzus persicae present thereon. After air drying, they were left to stand in an incubator at 25° C. and the numbers of living insects and dead insects were examined after 5 days (2 series). Meanwhile, in Table 32, when combination of two types of test chemicals are used (i.e., A and B), the combination of the two types was described as A+B, and in the concentration column (ppm), it was described as concentration of A+concentration of B.

The next experiment has as its system Chilo suppressalis. The experiment in a line: Test Example 10: insecticidal test against Chilo suppressalis (rice stem dip, single and combined chemicals). The conditions noted are these: after 6 days; for pest or weed control at 100 ppm: Chilo suppressalis, 144 h, read-out: Insect death ratio (%). How it is done:
Insecticidal Test Against Chilo suppressalis
A stem part was cut from a rice plant (breed: Koshihikari) cultivated in water and it was immersed in a chemical solution which has been diluted to have a pre-determined concentration. After air drying, it was put into a 9 cm polyethylene cup having a water-wetted filter paper laid on the bottom thereof, and 3-stage larvae of Chilo suppressalis were released and covered. They were left to stand in an incubator at 25° C., and the numbers of living insects and dead insects were examined after 6 days. There were two series, i.e., 5 insects per group. Meanwhile, in Table 30, when combination of two types of test chemicals are used (i.e., A and B), the combination of the two types was described as A+B, and in the concentration column (ppm), it was described as concentration of A+concentration of B.

The test system of experiment [2] is Nilaparvata lugens. The experiment in a line: Test Example 3: insecticidal test against Nilaparvata lugens (spray on young rice plant). Conditions: after 6 days. How it is done: Insecticidal Test Against Nilaparvata lugens
2.5 ml of acetone solution prepared to have the test compound at the pre-determined concentration described in the following Table 28 was sprayed to young rice plant followed by air drying. Then, it was added to a glass bottle (diameter of 3 cm and height of 13 cm) added with water. Ten sensitive Nilaparvata lugens (3-stage) were released therein, and then the bottle was covered with a cap. After keeping them in an incubator at 25° C., the numbers of living insects and dead insects were determined after 6 days (two series). Meanwhile, as a comparative compound, imidacloprid was used.

Experiment [3] concerns Nilaparvata lugens. Described as above. The conditions noted are these: after 6 days. This is another data set of the same source.
Experiment [4] has as its system Laodelphax striatellus. The experiment in a line: Test Example 14: insecticidal test against Laodelphax striatellus (spray on young rice plant, comparison with Reference Examples 3 and 4). Conditions: after 6 days. How it is done: as §1
A young rice plant (breed: Koshihikari) was sprayed with a chemical solution which has been diluted to a pre-determined concentration followed by air drying. Then, it was added to a glass test tube (diameter of 3 cm and height of 10 cm) added with water, together with ten Laodelphax striatellus larvae (3-stage), and then the tube was covered with a cap. The number of dead insects was determined after 6 days and the insect death ratio was calculated. There were two series, i.e., 10 insects per group.
Meanwhile, as a comparative compound, Reference Example 3 disclosed in the pamphlet of International Publication No. 2013/144088 and Reference Example 4 with C═O position different from the present compound were used.

The subject of experiment [5] is Nilaparvata lugens. The experiment in a line: Test Example 13: insecticidal test against Nilaparvata lugens using paddy field rice cultivating box (granule treatment). Conditions: for Adult insect death ratio (%): adults released 22 days after treatment, after 5 days; for Number of larvaes (number of insects): next generation larvae after 22 days. As to the method:
Insecticidal Test Against Nilaparvata lugens Using Paddy Field Rice Cultivating Box
A rice plant (breed: Koshihikari) cultivated in cultivating box was treated with granules with a pre-determined chemical amount, and it was transplanted in two pots, i.e., four plants per 1/5000a pot. Twenty-two days after the treatment, 10 female adults of Nilaparvata lugens were released and the young plants were covered with a mesh. Then, the insect death ratio was determined after 5 days. In addition, the number of the next generation larvae was determined after 22 days. There were two series. Meanwhile, in Table 33, when combination of two types of test chemicals (i.e., A and B), the combination of the two types was described as A+B, and in the chemical amount column (g a.i./box), it was described as chemical amount of A+chemical amount of B.

A further experiment relates to Pyricularia oryzae. As to the kind of experiment: whole plant or invertebrate. The conditions noted are these: Pyricularia oryzae, 168 h, read-out: Rice blast control value.
Setting [6] is: Laodelphax striatellus, in Oryza sativa, 144 h, read-out: Insect death ratio (%).
[7] abbreviates: Laodelphax striatellus, in Oryza sativa, 144 h, 1 ppm, after 6 days, read-out: Insect death ratio (%).
Setting [8] is: Laodelphax striatellus, in Oryza sativa, 144 h, 3 ppm, after 6 days, read-out: Insect death ratio (%).

Regarding `COP(=O)(NC(C)=O)SC` (stereo not drawn) [Acephate, acephate], in the experiment on Laodelphax striatellus [1] (setting [6]), the pest or weed control at 3 ppm came out at 20%.

With `CC(C)N1C(=O)N(c2ccccc2)CS/C1=N\C(C)(C)C` [Buprofezin, buprofezin], the pest or weed control at 1 ppm with Laodelphax striatellus [1] (setting [7]) was 70%.

Regarding `CN/C(=N/CC1CCOC1)N[N+](=O)[O-]` (stereo not drawn) [Dinotefuran, dinotefuran], the pest or weed control at 1 ppm with Laodelphax striatellus [1] (setting [6]) came out at 45%. Besides, in the experiment on Myzus persicae (10 ppm), the “Insect death ratio (%)” value came to 75%.

`CC[S+]([O-])c1c(C#N)nn(-c2c(Cl)cc(C(F)(F)F)cc2Cl)c1N` (stereo not drawn) [Ethiprole, ethiprole]: in the experiment with Laodelphax striatellus [1] (setting [8]), the pest or weed control at 3 ppm is 20%.

For `CCOc1ccc(C(C)(C)COCc2cccc(Oc3ccccc3)c2)cc1` [Ethofenprox, ethofenprox], the “Insect death ratio (%)” value in the experiment with Chilo suppressalis (100 ppm) is recorded as 100%; with Laodelphax striatellus [1] (30 ppm, after 6 days) it was 40%.

`N#Cc1nn(-c2c(Cl)cc(C(F)(F)F)cc2Cl)c(N)c1[S+]([O-])C(F)(F)F` (stereo not drawn) [Fipronil, fipronil]: the pest or weed control at 1 ppm in the experiment on Laodelphax striatellus [1] (setting [7]) was determined as 70%.

For `N#CCNC(=O)c1cnccc1C(F)(F)F` [Flonicamid, flonicamid], in the experiment with Myzus persicae (1 ppm), the “Insect death ratio (%)” value is recorded as 79%.

In the case of `Cc1cc(O)no1` [Hydroxyisoxazole, hydroxyisoxazole], the “Insect death ratio (%)” value in the experiment with Laodelphax striatellus [1] (600 ppm, after 6 days) came to 0%.

As for `O=[N+]([O-])NC1=NCCN1Cc1ccc(Cl)nc1` [Imidacloprid, imidacloprid, reference compound], the “Sensitive insect death ratio (%)” value with Nilaparvata lugens [2] (10 ppm spray) and with Nilaparvata lugens [2] (100 ppm spray) was 100% in each case. Also, the “Resistant insect death ratio (%)” value in the experiment on Nilaparvata lugens [3] (10 ppm spray) was found to be 21.7%; with Nilaparvata lugens [3] (100 ppm spray), 50.4%. Besides, the pest or weed control at 0.1 ppm with Laodelphax striatellus [1] (Laodelphax striatellus, in Oryza sativa, 144 h, 0.1 ppm, after 6 days, read-out: Insect death ratio (%)) was found to be 30%. Also, in the experiment with Myzus persicae (1 ppm), the “Insect death ratio (%)” value was found to be 100%.

Consider `CC(C)CC(C)c1sccc1NC(=O)c1cn(C)nc1C(F)(F)F` (stereo not drawn) [Penthiopyrad, penthiopyrad], for which, in the experiment with Myzus persicae (100 ppm), the “Insect death ratio (%)” value worked out at 13%.

Take `CC1=NNC(=O)N(/N=C/c2cccnc2)C1` [Pymetrozine, pymetrozine]: in the experiment with Laodelphax striatellus [1] (Laodelphax striatellus, in Oryza sativa, 144 h, 10 ppm, after 6 days, read-out: Insect death ratio (%)), the pest or weed control at 10 ppm was determined as 30%. For the same compound, in the experiment with Myzus persicae (1 ppm), the “Insect death ratio (%)” value is listed as 89%.

For `CC(=O)N1C(=O)N(NCc2cccnc2)Cc2cc(C(F)(C(F)(F)F)C(F)(F)F)ccc21` [Pyrifluquinazon, pyrifluquinazon], in the experiment with Myzus persicae (1 ppm), the “Insect death ratio (%)” value is listed as 100%.

Take `CSc1nc2n(Cc3ccc(Br)nc3)ccc(=O)n2n1` [Reference Example 3, 4-((6-bromopyridin-3-yl)methyl)-2-(methylthio)-[1,2,4]triazolo[1,5-a]pyrimidin-7(4H)-one, reference compound]: in the experiment with Laodelphax striatellus [4] (100 ppm), the “Insect death ratio (%)” value was 21%.

With `CSc1nc2n(Cc3ccc(Cl)nc3)c(=O)cc(C)n2n1` [Reference Example 4, 4-((6-chloropyridin-3-yl)methyl)-7-methyl-2-(methylthio)-[1,2,4]triazolo[1,5-a]pyrimidin-5(4H)-one, reference compound], the “Insect death ratio (%)” value with Laodelphax striatellus [4] (1000 ppm) was 40%.

Regarding `C[Si](C)(C)CC(O)(Cn1cncn1)c1ccc(F)cc1` (stereo not drawn) [Simeconazole, simeconazole, reference compound], in the experiment with Nilaparvata lugens [5] (2.25 g a.i./box granules), the “Adult insect death ratio (%)” value is reported as 20% and the “Number of larvaes (number of insects)” value was 69 number of insects.

For the compound `CN1COCN(Cc2cnc(Cl)s2)/C1=N\[N+](=O)[O-]` [Thiamethoxam, thiamethoxam], in the experiment on Myzus persicae (1 ppm), the “Insect death ratio (%)” value stood at 94%.

With `CSc1nc2n(Cc3ccc(Cl)nc3)c(C)cc(=O)n2n1` [compound 5, 4-((6-chloropyridin-3-yl)methyl)-5-methyl-2-(methylthio)-[1,2,4]triazolo[1,5-a]pyrimidin-7(4H)-one], the “Insect death ratio (%)” value in the experiment with Laodelphax striatellus [4] (10 ppm) was found to be 100%; in the experiment on Myzus persicae (100 ppm) it was 73%. In addition, the “Sensitive insect death ratio (%)” value in the experiment on Nilaparvata lugens [2] (10 ppm spray) and in the experiment on Nilaparvata lugens [2] (100 ppm spray) was 100% throughout. Further, the pest or weed control at 100 ppm in the experiment on Chilo suppressalis (100 ppm) and with Pyricularia oryzae was 0% throughout. For the same compound, the results for the “Resistant insect death ratio (%)” value in the experiment with Nilaparvata lugens [3] (10 ppm spray) and in the experiment on Nilaparvata lugens [3] (100 ppm spray) were 95% and 100%, respectively. For the same compound, the pest or weed control at 3 ppm in the experiment on Laodelphax striatellus [1] (setting [8]) came out at 20%.

For `CSc1cc2n(Cc3ccc(Cl)nc3)c(C)cc(=O)n2n1` [compound 154, 4-((6-chloropyridin-3-yl)methyl)-5-methyl-2-(methylthio)-pyrazolo[1,5-a]pyrimidin-7(4H)-one], the “Insect death ratio (%)” value in the experiment with Laodelphax striatellus [4] (10 ppm) turned out to be 100%; in the experiment with Myzus persicae (10 ppm) it was 70%. The “Sensitive insect death ratio (%)” value in the experiment with Nilaparvata lugens [2] (10 ppm spray) and with Nilaparvata lugens [2] (100 ppm spray) was 100% in each case. Besides, the pest or weed control at 100 ppm in the experiment on Chilo suppressalis (100 ppm) and in the experiment on Pyricularia oryzae was 0% in each case. In addition, the “Resistant insect death ratio (%)” value in the experiment with Nilaparvata lugens [3] (10 ppm spray) and in the experiment on Nilaparvata lugens [3] (100 ppm spray) was 100% in each case. Besides, in the experiment on Laodelphax striatellus [1] (setting [8]), the pest or weed control at 3 ppm worked out at 40%. In addition, the “Adult insect death ratio (%)” value in the experiment on Nilaparvata lugens [5] (2 g a.i./box granules) came to 90%. Moreover, in the experiment with Nilaparvata lugens [5] (2 g a.i./box granules), the “Number of larvaes (number of insects)” value was 0 number of insects.

Consider lepimectin, for which the “Insect death ratio (%)” value with Myzus persicae (10 ppm) is listed as 88%.

For milbemectin, the “Insect death ratio (%)” value in the experiment with Myzus persicae (10 ppm) was 86%.

For spinosad, the “Insect death ratio (%)” value with Chilo suppressalis (1 ppm) is given as 70%.

The values are drawn from US9963451B2, “Fused ring pyrimidine compound and pest control agent containing the same” (Mitsui Chemicals Agro, Inc., priority 2013, dated 2018).
